Laboratory results: patent US20230271966A1, “PRPK INHIBITORS” (Dana-Farber Cancer Institute, Inc., priority 2020, published 2023)

Columns and labels:
PRPK = PRPK (Homo sapiens (Human), UniProt Q96S44); test: Isothermal titration calorimetry (ITC), PRPK; format: binding; settings: for Kd: 20 μM protein titrated with 200 μM test compound, 20 mM HEPES pH 7.5, 150 mM NaCl, 0.5 mM TCEP, 2% DMSO, 25° C, single site model; for PRPK binding Kd compared with pomalidomide: ITC, comparison in words with control Pomalidomide
Chain of PRPK (Q96S44 whole entry): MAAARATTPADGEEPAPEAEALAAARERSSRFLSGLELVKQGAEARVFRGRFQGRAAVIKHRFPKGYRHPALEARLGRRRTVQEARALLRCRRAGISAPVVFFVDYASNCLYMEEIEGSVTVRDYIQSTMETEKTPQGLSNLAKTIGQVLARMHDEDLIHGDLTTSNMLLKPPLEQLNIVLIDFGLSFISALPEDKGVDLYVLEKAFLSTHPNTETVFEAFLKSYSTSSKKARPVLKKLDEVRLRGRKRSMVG
Description: (§1) All calorimetric experiments were carried out using an Affinity ITC from TA Instruments (New Castle, Del.) equipped with an auto sampler in a buffer containing 20 mM HEPES, pH 7.5, 150 mM NaCl, 0.5 mM TCEP, and 2% DMSO at 25° C. 20 μM protein solution containing PRPK or Cereblon (CRBN) in the calorimetric cell was titrated with 200 μM of a test compound solution using 2 μL injection in 200 seconds intervals using a stirring speed at 125 rpm. Resulting isotherm was fitted with a single site model to yield thermodynamic parameters of ΔH, ΔS, stoichiometry, and Kd using NanoAnalyze software (TA instruments).

Cereblon (CRBN) = Cereblon (CRBN) (Homo sapiens (Human), UniProt Q96SW2); test: Isothermal titration calorimetry (ITC), Cereblon (CRBN); format: binding; settings: for Kd: 20 μM protein titrated with 200 μM test compound, 20 mM HEPES pH 7.5, 150 mM NaCl, 0.5 mM TCEP, 2% DMSO, 25° C, single site model
Chain of Cereblon (CRBN) (Q96SW2 whole entry, species assumed): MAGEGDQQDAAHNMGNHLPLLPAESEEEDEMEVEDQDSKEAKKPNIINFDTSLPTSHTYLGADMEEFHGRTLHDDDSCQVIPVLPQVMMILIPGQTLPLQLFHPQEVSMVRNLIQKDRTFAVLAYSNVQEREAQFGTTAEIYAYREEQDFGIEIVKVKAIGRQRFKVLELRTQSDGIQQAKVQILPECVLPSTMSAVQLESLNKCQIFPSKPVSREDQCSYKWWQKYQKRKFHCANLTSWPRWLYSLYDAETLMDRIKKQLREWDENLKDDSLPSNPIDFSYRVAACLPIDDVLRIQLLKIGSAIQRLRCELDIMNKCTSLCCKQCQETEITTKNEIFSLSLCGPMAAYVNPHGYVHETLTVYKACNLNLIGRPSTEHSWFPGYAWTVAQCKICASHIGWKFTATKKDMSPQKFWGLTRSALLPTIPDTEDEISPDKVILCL
Description: as §1

Which results are given for `C[C@@]1(N2C(=O)c3ccc(C(=O)O)cc3C2=O)CCC(=O)NC1=O` [Compound 12, (R)-2-(3-methyl-2,6-dioxopiperidin-3-yl)-1,3-dioxoisoindoline-5-carboxylic acid]?
Kd (PRPK): 0.28 ± 0.08 µM; PRPK binding Kd compared with pomalidomide (PRPK): lower than Pomalidomide; Kd (Cereblon (CRBN)): > 1000 µM; CRBN inhibition (conclusion in words from ITC) (Cereblon (CRBN)): not CRBN inhibitors

Which results are given for `C[C@@]1(N2C(=O)c3ccc(-c4cn[nH]c4)c(O)c3C2=O)CCC(=O)NC1=O` [Compound 22, (R)-4-hydroxy-2-(3-methyl-2,6-dioxopiperidin-3-yl)-5-(1H-pyrazol-4-yl)isoindoline-1,3-dione]?
Kd (PRPK): > 1000 µM; Kd (Cereblon (CRBN)): > 1000 µM

For `O=C1CCC(N2C(=O)c3ccc(-c4cn[nH]c4)c(O)c3C2=O)C(=O)N1` (centres unmarked) [Compound 13, 2-(2,6-dioxopiperidin-3-yl)-4-hydroxy-5-(1H-pyrazol-4-yl)isoindoline-1,3-dione], which Kd (PRPK) is on record?
The Kd was 1.9 ± 1.7 µM.

What about the “PRPK binding Kd compared with pomalidomide” value (PRPK) of the same molecule?
Its value is “lower than Pomalidomide”.

What about the Kd (Cereblon (CRBN)) of the same molecule?
The Kd was 0.54 µM.

What about the “CRBN inhibition (conclusion in words from ITC)” value (Cereblon (CRBN)) of the same molecule?
The value was “not CRBN inhibitors”.

Which results are given for `C[C@@]1(N2C(=O)c3ccc(-c4n[nH]c(=S)o4)cc3C2=O)CCC(=O)NC1=O` [Compound 30, (R)-2-(3-methyl-2,6-dioxopiperidin-3-yl)-5-(5-thioxo-4,5-dihydro-1,3,4-oxadiazol-2-yl)isoindoline-1,3-dione]?
Kd (PRPK): 0.36 ± 0.07 µM; PRPK binding Kd compared with pomalidomide (PRPK): lower than Pomalidomide; Kd (Cereblon (CRBN)): > 1000 µM; CRBN inhibition (conclusion in words from ITC) (Cereblon (CRBN)): not CRBN inhibitors
